Source: ChEMBL document CHEMBL5338791, “Discovery of Novel 1,3-Diphenylpyrazine Derivatives as Potent S-Phase Kinase-Associated Protein 2 (Skp2) Inhibitors for the Treatment of Cancer” (J Med Chem, 2023)
pIC50: −log10 of the molar value. Active and inactive are the calls of the source. The calls are words filed in the database; no cut-off is given here.

What was measured:
[1] = Toxicity in NOD-SCID mouse model xenografted with human MGC-803 cells assessed as change in kidney histology at 10 to 50 mg/kg, IG administered once every 2 days for 21 days by H and E staining based analysis; assay type: organism-based; conditions: in vivo, po, 504 h, dose 10-50 mg/kg, time 21 day
[2] = system: MGC-803; experiment: Induction of cell cycle arrest in human MGC-803 cells assessed as accumulation of cells at G2 phase at 2.5 uM incubated for 48 hrs by flow cytometry (reference value: 21.35 %); assay type: functional
[3] = Apparent volume of distribution in tumor of NOD-SCID mouse model xenografted with human PC-3 cells at 25 mg/kg, IG measured upto 48 hrs by LC-MS/MS analysis; assay type: ADME, organism-based, Neoplasm; conditions: in vivo, po
[4] = system: PC-3; experiment: Induction of cell cycle arrest in human PC-3 cells assessed as accumulation of cells at G2 phase at 10 uM incubated for 12 hrs by flow cytometry (reference value: 19.34 %); assay type: functional
[5] = Toxicity in NOD-SCID mouse model xenografted with human MGC-803 cells assessed as change in heart histology at 10 to 50 mg/kg, IG administered once every 2 days for 21 days by H and E staining based analysis; assay type: organism-based; conditions: in vivo, po, 504 h, dose 10-50 mg/kg, time 21 day
[6] = system: PC-3; experiment: Induction of cell cycle arrest in human PC-3 cells assessed as accumulation of cells at S phase at 10 uM incubated for 36 hrs by flow cytometry (reference value: 19.7 %); assay type: functional
[7] = system: MGC-803; experiment: Antitumor activity against human MGC-803 cells xenografted in NOD-SCID mouse model assessed as p27 accumulation at 10 to 50 mg/kg, IG administered once every 2 days for 21 days by Western blot analysis; assay type: functional, organism-based; conditions: dose 10-50 mg/kg, time 21.0 day
[8] = AUClast in tumor of NOD-SCID mouse model xenografted with human PC-3 cells at 25 mg/kg, IG measured upto 48 hrs by LC-MS/MS analysis; assay type: ADME, organism-based, Neoplasm; conditions: in vivo, po
[9] = system: PC-3; experiment: Inhibition of cell migration in human PC-3 cells incubated for 48 hrs by wound healing assay; assay type: functional, cell-based; conditions: dose <= 2.0 µM
[10] = system: MGC-803; experiment: Induction of cell cycle arrest in human MGC-803 cells assessed as accumulation of cells at G1 phase at 10 uM incubated for 6 hrs by flow cytometry (reference value: 57.09 %); assay type: functional
[11] = system: MGC-803; experiment: Induction of cell cycle arrest in human MGC-803 cells assessed as accumulation of cells at G1 phase at 2.5 uM incubated for 48 hrs by flow cytometry (reference value: 54.46 %); assay type: functional
[12] = AUClast in plasma of NOD-SCID mouse model xenografted with human PC-3 cells at 25 mg/kg, IG measured upto 48 hrs by LC-MS/MS analysis; assay type: ADME, organism-based; design: dose 25 mg/kg, time < 48 hrs, route ig; conditions: po
[13] = system: MGC-803; experiment: Induction of apoptosis in human MGC-803 cells assessed as early apoptotic cells at 2.5 uM incubated for 48 hrs by annexin V-FITC/PI staining based flow cytometry (reference value: 0.21 %); assay type: functional
[14] = system: MGC-803; experiment: Induction of apoptosis in human MGC-803 cells assessed as necrotic cells at 2.5 uM incubated for 48 hrs by annexin V-FITC/PI staining based flow cytometry (reference value: 0.89 %); assay type: functional
[15] = system: PC-3; experiment: Antitumor activity against human PC-3 cells xenografted in NOD-SCID mouse model assessed as tumor growth inhibition at 10 mg/kg, IG administered once every 2 days for 21 days relative to control; assay type: functional; conditions: PC-3, po, 504 h, time 21 day, read-out: TGI
[16] = system: PC-3; experiment: Induction of cell cycle arrest in human PC-3 cells assessed as accumulation of cells at G2 phase at 10 uM incubated for 36 hrs by flow cytometry (reference value: 19.34 %); assay type: functional
[17] = Metabolic stability in human liver microsome assessed as half life at 20 umol/L preincubated for 5 mins followed by NADPH addition measured upto 60 mins by LC-MS/MS analysis; assay type: ADME; conditions: liver microsomes, dose 20 µmol/L, time < 65 min
[18] = system: PC-3; experiment: Induction of apoptosis in human PC-3 cells assessed as necrotic cells at 2.5 uM incubated for 48 hrs by annexin V-FITC/PI staining based flow cytometry (reference value: 0.14 %); assay type: functional
[19] = system: MGC-803; experiment: Induction of cell cycle arrest in human MGC-803 cells assessed as accumulation of cells at S phase at 10 uM incubated for 36 hrs by flow cytometry (reference value: 20.41 %); assay type: functional
[20] = system: PC-3; experiment: Induction of cell cycle arrest in human PC-3 cells assessed as accumulation of cells at S phase at 10 uM incubated for 12 hrs by flow cytometry (reference value: 19.7 %); assay type: functional
[21] = system: MGC-803; experiment: Induction of cell cycle arrest in human MGC-803 cells assessed as accumulation of cells at S phase at 10 uM incubated for 6 hrs by flow cytometry (reference value: 20.41 %); assay type: functional
[22] = system: MGC-803; experiment: Induction of apoptosis in human MGC-803 cells assessed as necrotic cells at 10 uM incubated for 48 hrs by annexin V-FITC/PI staining based flow cytometry (reference value: 0.89 %); assay type: functional
[23] = system: PC-3; experiment: Induction of cell cycle arrest in human PC-3 cells assessed as accumulation of cells at G1 phase at 10 uM incubated for 12 hrs by flow cytometry (reference value: 56.81 %); assay type: functional
[24] = system: PC-3; experiment: Induction of cell cycle arrest in human PC-3 cells assessed as accumulation of cells at G2 phase at 5 uM incubated for 48 hrs by flow cytometry (reference value: 22.59 %); assay type: functional
[25] = system: PC-3; experiment: Induction of cell cycle arrest in human PC-3 cells assessed as accumulation of cells at G1 phase at 10 uM incubated for 48 hrs by flow cytometry (reference value: 56.81 %); assay type: functional
[26] = system: ES-2; experiment: Antitumor activity against human ES2 cells overexpressing Skp2 assessed as cell growth inhibition incubated for 72 hrs by MTT assay; assay type: functional, cell-based; conditions: ES-2, 72 h
[27] = system: PC-3; experiment: Antitumor activity against human PC-3 cells xenografted in NOD-SCID mouse model assessed as p27 accumulation at 10 to 50 mg/kg, IG administered once every 2 days for 21 days by Western blot analysis; assay type: functional, organism-based; conditions: dose 10-50 mg/kg, time 21.0 day
[28] = AUC (infinity) in plasma of NOD-SCID mouse model xenografted with human PC-3 cells at 25 mg/kg, IG measured upto 48 hrs by LC-MS/MS analysis; assay type: ADME, organism-based; design: time < 48 hrs, dose 25 mg/kg, route ig; conditions: po
[29] = Toxicity in mouse assessed as decrease in total protein level at 10 to 50 mg/kg; assay type: organism-based; conditions: in vivo, dose 10-50 mg/kg
[30] = system: PC-3; experiment: Induction of cell cycle arrest in human PC-3 cells assessed as accumulation of cells at S phase at 10 uM incubated for 6 hrs by flow cytometry (reference value: 19.7 %); assay type: functional
[31] = system: PC-3; experiment: Induction of apoptosis in human PC-3 cells assessed as necrotic cells at 5 uM incubated for 48 hrs by annexin V-FITC/PI staining based flow cytometry (reference value: 0.14 %); assay type: functional
[32] = Toxicity in NOD-SCID mouse model xenografted with human PC-3 cells assessed as change in kidney histology at 10 to 50 mg/kg, IG administered once every 2 days for 21 days by H and E staining based analysis; assay type: organism-based; conditions: in vivo, po, 504 h, dose 10-50 mg/kg, time 21 day
[33] = system: MGC-803; experiment: Antitumor activity against human MGC-803 cells xenografted in NOD-SCID mouse model assessed as increase in apoptosis in tumor tissue at 10 to 50 mg/kg, IG administered once every 2 days for 21 days by TUNEL staining based analysis; assay type: functional, organism-based; conditions: dose 10-50 mg/kg, time 21.0 day

Which Activity [1] does the source give for O=C(CCl)NC1CCN(c2cnc(-c3ccccc3)c(-c3ccccc3)n2)CC1 here?
Its Activity is “Non-Toxic”.

And the Activity [2]?
The Activity was 23.15%.

And the Vz [3]?
The Vz was 170.8 L/kg.

What about the Activity [4] of the same molecule?
Its Activity is 21.89%.

What about the Activity [5] of the same molecule?
Its Activity is “Non-Toxic”.

And the Activity [6]?
Its Activity is 45.23%.

What about the Activity [7] of the same molecule?
The Activity was “Active”.

What about the AUClast [8] of the same molecule?
The AUClast was 2443.9 ng·h/g.

And the inhibition [9]?
Its inhibition is “Dose-Dependent Effect”.

What about the Activity [10] of the same molecule?
The Activity was 47.84%.

What about the Activity [11] of the same molecule?
The Activity was 49.77%.

And the AUC(0-t) at 48 h [12]?
The AUC(0-t) at 48 h was 3230 ng·h/mL.

And the Activity [13]?
The Activity was 2.85%.

What about the Activity [14] of the same molecule?
Its Activity is 1.02%.

What about the inhibition in vivo at 10 mg/kg [15] of the same molecule?
Its inhibition in vivo at 10 mg/kg is 55.7%.

And the Activity [16]?
The Activity was 20.75%.

What about the half-life at 20 µM [17] of the same molecule?
The half-life at 20 µM was 1.1 h.

What about the Activity [18] of the same molecule?
Its Activity is 1.86%.

And the Activity [19]?
The Activity was 42.29%.

And the Activity [20]?
The Activity was 32.51%.

And the Activity [21]?
Its Activity is 29.93%.

And the Activity [22]?
The Activity was 4.73%.

And the Activity [23]?
Its Activity is 44.95%.

What about the Activity [24] of the same molecule?
The Activity was 16.41%.

What about the Activity [25] of the same molecule?
Its Activity is 35.47%.

What about the pIC50 [26] of the same molecule?
The pIC50 was 5.44.

And the Activity [27]?
Its Activity is “Active”.

What about the AUC(0-inf) [28] of the same molecule?
Its AUC(0-inf) is 3550 ng·h/mL.

What about the Activity [29] of the same molecule?
The Activity was “Toxic”.

What about the Activity [30] of the same molecule?
The Activity was 28.11%.

What about the Activity [31] of the same molecule?
The Activity was 5.15%.

What about the Activity [32] of the same molecule?
The Activity was “Non-Toxic”.

And the Activity [33]?
Its Activity is “Active”.
